Assay [1] deals with E-selectin, ICAM-1 and VCAM-1 expression on T. cruzi-infected EA.hy926 and HUVEC cells. As to the kind of experiment: Endothelial cell adhesion molecule surface expression by flow cytometry / immunofluorescence. It counts as cell-based, human. The note with it: 5 μM simvastatin or 20 μM benznidazole for 24 hours before 16 hours T. cruzi infection (MOI 10); EA.hy926 and HUVEC. How it is done:
Then, cells were infected with trypomastigotes at a MOI of 10 and incubated for 16 hours. Cells were detached with 1X EDTA-PBS at 0.5 mM. The harvested cells were washed with cold PBS and centrifuged at 800 x g for 5 minutes. Then, cells were washed with flow cytometry buffer three times. 100 μL of cell suspensions were incubated for 45 min at 4°C in the dark with mouse monoclonal anti- human E-selectin (5 μL undiluted), ICAM-1(3 μL undiluted), and VCAM-1 (1 μL undiluted) that were conjugated with PE, FITC and APC, respectively (BioLegend, USA). Cell suspensions were analyzed by flow cytometry using a FACSAria-III flow cytometer (BD Biosciences, USA). A homogeneous cell population was selected by size vs. granularity in log scale for these two conditions.
2x10^4 EA.hy926 cells/slide were seeded in Lab-Tek II Chamber Slide^TM (ThermoScientific, USA) and allowed to adhere overnight. […] After 16 hours of infection, cells were fixed in 4% formaldehyde–0.1 M phosphate buffer (pH 7.3) for 10 min. Cells were blocked with 3% bovine serum albumin for 1 hour. Then, cells were incubated with monoclonal antibodies against E-selectin (1:100), VCAM-1 (1:250) and ICAM-1 (1:100) (from Abcam, UK) overnight at 4°C. The samples were washed with PBS and incubated with anti-rabbit IgG that had been conjugated with fluorescein (1:100) from Sigma-Aldrich for 1 h. Finally, nuclei were stained with DAPI for 5 minutes and mounted with Dako Fluorescence Mounting (Dako, USA). The cells were photographed using a Nikon Eclipse 400 fluorescence microscope (Nikon, Japan), and images were analyzed by mean intensity using ImageJ software (ImageJ 1.47v).
A general note: Flow cytometry measures light scatter and fluorescence of single cells or particles in a stream.

Assay [2] relates to 15-epi-lipoxin A4 production by T. cruzi-infected EA.hy926 cells. As to the kind of experiment: 15-epi-lipoxin A4 quantification by DSA-TOF MS in culture supernatants. It counts as cell-based, human. The note with it: 5 μM simvastatin. How it is done:
8x10^5 EA.hy926 cells/well were cultured in 6-well plates (IMDM 10% SFB). […] 15-epi-LXA4 determination was performed by:
• ELISA assay: the supernatant from the cell cultures was assayed using a 15-epi-LXA4 BioAssay ELISA Kit (USBiological, USA) following manufacturer’s instructions. • AxION DSA—TOF MS determination: To determine 15-epi-lipoxin A4 levels in EAhy926 cell culture supernatants, an AxION Direct Sample Analysis (DSA) that was integrated with an AxION 2 time-of-flight (TOF) mass spectrometer (PerkinElmer, Shelton, CT, USA) was employed. For extraction, all of the samples were loaded onto a solid phase extraction and eluted with 1 mL chloroform three times successively. Then, the samples were transferred into a clean tube, and the chloroform in the samples was evaporated in a water bath. Finally, the samples were resuspended in 100 μL ethanol, and 10 μL were pipetted onto a stainless mesh. For the calibration curve, 15-epi-lipoxin A4 (cat#90415, Cayman Chemical, USA) was diluted in PBS to achieve different final concentrations (see S1 Fig). From each tube, 10 μL was pipetted onto a stainless mesh, and DSA—TOF determination was performed. The AxION DSA conditions were as follows: 5 μA corona current, 250°C heater temperature, 80 psi auxiliary gas (N2) pressure, 4 L/min drying gas (N2) flow, and 25°C drying gas (N2) temperature. […] Mass spectra were acquired with a mass range of 100–1000 m/z and an acquisition rate of 2 spectra/sec. To maintain mass accuracy, […] lock mass ions were used (m/z 119.0400, m/z 556.0000 and m/z 805.9900). All of the samples were analyzed for only 10 sec. The standards used were 15-epi-lipoxin A4 (cat#90415, Cayman Chemical,) and 5(S),6(R)-Lipoxin A4 methyl ester (cat#10033, Cayman Chemical) as an internal standard. These were confirmed in seconds by accurate mass and isotopic distribution of parent and fragment ions using DSA/TOF and AxION software, and compound identification was performed using the standards. All of the samples were analyzed in triplicate.

In the case of `O=C(Cn1ccnc1[N+](=O)[O-])NCc1ccccc1` [Benznidazole], the “E-selectin, ICAM-1 and VCAM-1 surface expression” value in assay [1] is given as “prevent cell adhesion molecule expression”.
`CCC(C)(C)C(=O)O[C@H]1C[C@@H](C)C=C2C=C[C@H](C)[C@H](CC[C@@H]3C[C@@H](O)CC(=O)O3)[C@H]21` [Simvastatin]: the “15-epi-lipoxin A4 concentration (Mean ± SD)” value in assay [2] (3 hours) amounted to 1.58 ± 0.21 ng/mL; in assay [2] (6 hours), 3.58 ± 1.22 ng/mL; in assay [2] (12 hours), 37.28 ± 11.23 ng/mL; in assay [2] (24 hours), 326 ± 34.25 ng/mL.

Values taken from publication PMC4433340 (PLoS Neglected Tropical Diseases, 2015).
